# Source: US11744844B2, “Selective estrogen receptor degraders” (Eli Lilly and Company, priority 2021, dated 2023)
# Counter-ions that a name gives are not always drawn.
# Key:
# [1] = system: MCF7 ESR1 Y537N mutant cells; assay: Cell proliferation assay in MCF7-ESR1 Y537N-682; type: cell-based; conditions: Homo sapiens, 168 h; MCF7-ESR1 Y537N-682, seven days; read-out: Relative IC50 MCF7 ESR1 Y537N mutant cells, cell proliferation
# Experimental: The purpose of the following cell proliferation assays generally is to detect whether a test compound has effects on cell proliferation.
# Seed MCF7 (purchased from ATCC HTB-22) cells at a density of 2,000 cells per well in DMEM phenol red free media 10% FBS (20 μL volume) (charcoal stripped) into a clear bottom 384-well cell culture plate. Plate MCF7-ESRY537N-682 (generated by CRISPR/Cas9 gene editing of ESr1 gene in MCF7 cells, clone #682) in DMEM media supplemented with 10% FBS, and 1% penicillin/streptomycin antibiotics at a density of 1000 cells per well. Incubate the plates at 37° C. and 5% CO2. The following day dose the cells with the test compound. Use an Echo 555 acoustic dispenser to prepare test compound serial dilutions (1:3) in a range from 60 μM to 0.003 μM. Dose the cells with the addition of 5 μL from the serial dilution plate to the cell plate, producing a final DMSO concentration of 0.2% with a final test compound concentration dose range between 20 and 0.001 μM. For the maximum point use media containing 0.2% of DMSO and for the minimum point use fulvestrant diluted at 2 μM final concentrations in the growth media containing 0.2% DMSO. After dosing with the test compound, incubate the cell plates at 37° C. and 5% CO2. […] Scan the plates with ACUMEN EXPLORER™ (Laser-scanning fluorescence microplate cytometer manufactured by TTP LABTECH LTD).
# [2] = molecular target: T1, ERα (Homo sapiens, UniProt P03372); assay: PRα induction assay in MCF7 cells (ERα agonism); type: cell-based; conditions: MCF7 breast cancer cells, 24 hours, up to 2 μM
# T1 construct: measure the degradation of ERα by a test compound in an ERα positive breast cancer cell line such as MCF7; host or cells: MCF7
# T1 sequence (P03372 1-595): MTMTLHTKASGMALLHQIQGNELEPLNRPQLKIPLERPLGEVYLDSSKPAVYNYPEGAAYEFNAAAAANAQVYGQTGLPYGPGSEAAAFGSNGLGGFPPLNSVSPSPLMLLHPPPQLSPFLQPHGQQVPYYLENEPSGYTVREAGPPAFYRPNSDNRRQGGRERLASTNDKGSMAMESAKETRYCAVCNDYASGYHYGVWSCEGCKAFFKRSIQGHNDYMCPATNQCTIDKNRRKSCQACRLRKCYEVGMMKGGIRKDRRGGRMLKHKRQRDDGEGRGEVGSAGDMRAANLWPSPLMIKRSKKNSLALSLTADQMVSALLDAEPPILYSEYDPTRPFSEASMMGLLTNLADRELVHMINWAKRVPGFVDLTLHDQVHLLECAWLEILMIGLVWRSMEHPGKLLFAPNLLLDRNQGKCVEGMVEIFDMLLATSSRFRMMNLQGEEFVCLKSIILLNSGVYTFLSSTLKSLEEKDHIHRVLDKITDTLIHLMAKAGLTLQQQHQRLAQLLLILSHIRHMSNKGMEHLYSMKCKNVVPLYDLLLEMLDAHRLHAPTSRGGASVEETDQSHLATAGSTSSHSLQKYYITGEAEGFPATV
# Experimental: The purpose of the following PRα induction assay is to determine whether a test compound has agonistic activity against ERα receptor (an agonist would be expected to activate the receptor).
# Culture MCF7 (purchased from ATCC HTB-22) in DMEM media supplemented with 10% FBS, 0.01 mg/mL human insulin 1 and 1% penicillin/streptomycin antibiotics and plate the cells (prior to becoming 70% confluent) in 384-well flat-bottom plates at a density of 4,000 cells per well in 20 μL volume in DMEM phenol red free media containing 10% FBS (charcoal stripped). Incubate the cells overnight in a cell culture incubator (5% CO2, 95% relative humidity at 37° C.) and allow the cells to attach to the plate. The following day dose the cells with test compound. Use an Echo 555 acoustic dispenser to prepare compound serial dilutions (1:3) in a range from 6 μM to 0.0003 μM. […]
# The following day wash cells with PBS 0.05% TWEEN® 20 (2×20 μL) and incubate with secondary antibody (20 μL/well) (1:1000 dilution, Goat anti-rabbit IgM ALEXA FLUOR™ 488) in PBS 1% BSA for 105 minutes at room temperature. […] Scan plates with ACUMEN EXPLORER™ (Laser-scanning fluorescence microplate cytometer manufactured by TTP LABTECH LTD) to measure PRα. […]
IC50 [1] [nM],agonistic activity (PRα induction) [2],Structure (SMILES)
702 ± 389,no significant agonistic activity,"O=S(=O)(O)Oc1ccc2c3c(cnc2c1)-c1ccc(C(F)(F)F)cc1O[C@@H]3c1ccc(OCCN2CC(CF)C2)cc1 [Example 1, [(5R)-5-[4-[2-[3-(Fluoromethyl)azetidin-1-yl]ethoxy]phenyl]-8-(trifluoromethyl)-5H-chromeno[4,3-c]quinolin-2-yl]hydrogen sulfate]"
1500 ± 966,no significant agonistic activity,"O=C(O)[C@H]1O[C@@H](Oc2ccc3c4c(cnc3c2)-c2ccc(C(F)(F)F)cc2O[C@@H]4c2ccc(OCCN3CC(CF)C3)cc2)[C@H](O)[C@@H](O)[C@@H]1O [Example 2, (2S,3S,4S,5R,6S)-6-[[(5R)-5-[4-[2-[3-(Fluoromethyl)azetidin-1-yl]ethoxy]phenyl]-8-(trifluoromethyl)-5H-chromeno[4,3-c]quinolin-2-yl]oxy]-3,4,5-trihydroxy-tetrahydropyran-2-carboxylic acid]"
